# In patent publication US10966426B2, “Herbicidal compositions comprising phenylpyrimidines” (BASF SE, priority 2016, dated 2021):
# Legend:
# Type in all cases: in vivo
# [1] = system: Setaria viridis; assay: greenhouse pre-emergence treatment, SETVI; conditions: SETVI
# Summary of the method: (§1)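 Damage rated on 0 to 100 scale (0 = normal growth, 100 = no emergence or total above-ground kill) after 2-4 weeks at species-dependent 10-25° C or 20-35° C. Seeds sown per species in loamy sand, ~3.0% humus, treated right after sowing with aqueous spray of single actives or 10% emulsion-concentrate mixtures, then hooded; additive expectation by Colby.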
# [2] = system: BRAPL; assay: greenhouse pre-emergence treatment, BRAPL; conditions: Table X9, 21 DAT
# [3] = system: Galium aparine; assay: greenhouse pre-emergence treatment, GALAP; conditions: Galium aparine, 480 h, solo, EC 800 g/l, GALAP, 500 gai/ha, 20 DAT
# Summary of the method: as §1
# [4] = system: Matricaria chamomilla; assay: greenhouse pre-emergence treatment, MATCH; conditions: Matricaria chamomilla, 480 h, 20 DAT
# Text: (§2) The culture containers used were plastic pots containing loamy sand with approximately 3.0% of humus as substrate. The seeds of the test plants were sown separately for each species.
# (§3) For the pre-emergence treatment, the active compounds, suspended or emulsified in water, were applied directly after sowing by means of finely distributing nozzles. The containers were irrigated gently to promote germination and growth and subsequently covered with transparent plastic hoods until the plants had rooted. This cover caused uniform germination of the test plants unless this was adversely affected by the active compounds.
# (§4) Depending on the species, the plants were kept at 10-25° C. and 20-35° C., respectively.
# (§5) The test period extended over 2 to 4 weeks. During this time, the plants were tended and their response to the individual treatments was evaluated.
# (§6) Evaluation was carried out using a scale from 0 to 100. 100 means no emergence of the plants, or complete destruction of at least the above-ground parts, and 0 means no damage or normal course of growth. A good herbicidal activity is given at values of at least 70, and very good herbicidal activity is given at values of at least 85.
# (§7) The respective stated components A and B, and if appropriate, C were formulated as a 10% by weight strength emulsion concentrate and, with addition of the amount of solvent system, introduced into the spray liquor used for applying the active compound. In the examples, the solvent used was water.
# (§8) In the examples below, using the method of S. R. Colby (1967) “Calculating synergistic and antagonistic responses of herbicide combinations”, Weeds 15, p. 22ff., the value E, which is expected if the activity of the individual active compounds is only additive, was calculated. E=X+Y−(X·Y/100) where X=effect in percent using herbicide A at an application rate a; • Y=effect in percent using herbicide B at application rate b; • E=expected effect (in %) of herbicide A+herbicide B at application rates a+b.
# [5] = system: Lolium multiflorum; assay: greenhouse pre-emergence treatment, LOLMU; conditions: Lolium multiflorum, 480 h, 20 DAT, LOLMU
# Summary of the method: as §1
# [6] = system: Polygonum convolvulus; assay: greenhouse pre-emergence treatment, POLCO; conditions: Fallopia convolvulus, 480 h, 20 DAT, POLCO
# Summary of the method: as §1
# [7] = system: Poa annua; assay: greenhouse pre-emergence treatment, POAAN; conditions: Poa annua, 480 h, 20 DAT; for inhibition at 500000 µg/mL (stock): sc
# Text: as §2, §3, §4, §5, §6, §7, §8
# [8] = system: Papaver rhoeas; assay: greenhouse pre-emergence treatment, PAPRH; conditions: 20 DAT
# Text: as §2, §3, §4, §5, §6, §7, §8
# [9] = system: Bromus sterilis; assay: greenhouse pre-emergence treatment, BROST; conditions: Bromus sterilis, 480 h, 20 DAT, BROST
# Summary of the method: as §1
# [10] = system: Brachiaria decumbens; assay: greenhouse pre-emergence treatment, BRADC; conditions: Urochloa decumbens, 480 h, 20 DAT, BRADC
# Summary of the method: as §1
# [11] = system: Alopecurus myosuroides; assay: greenhouse pre-emergence treatment, ALOMY; conditions: Alopecurus myosuroides, 480 h, 20 DAT, solo terbuthylazin (SC 500 g/l) 250 gai/ha
# Text: as §2, §3, §4, §5, §6, §7, §8
# [12] = system: Apera spica-venti; assay: greenhouse pre-emergence treatment, APESV; conditions: Apera spica-venti, sc, 480 h, 20 DAT
# Summary of the method: as §1
# [13] = system: Ambrosia elatior; assay: greenhouse pre-emergence treatment, AMBEL; conditions: Ambrosia artemisiifolia, 480 h, terbuthylazin solo (SC 500 g/l), 500 gai/ha, 20 DAT, AMBEL
# Summary of the method: as §1
# [14] = system: Lolium perenne; assay: greenhouse post-emergence treatment, LOLPE; conditions: solo terbuthylazin (SC 500 g/l) 125 gai/ha, 20 DAT, 2nd series of rows
# Description: as §2
# To this end, the test plants were either sown directly, and grown in the same containers, or they were first grown separately as seedlings and transplanted into the test containers a few days prior to treatment.
# as §4, §5, §6
# In the examples, the solvent used was water.
# In the examples below, using the method of S. R. Colby (1967) “Calculating synergistic and antagonistic responses of herbicide combinations”, Weeds 15, p. […] E=X+Y−(X·Y/100) where X=effect in percent using herbicide A at an application rate a; • Y=effect in percent using herbicide B at application rate b; • E=expected effect (in %) of herbicide A+herbicide B at application rates a+b.
# [15] = system: Digitaria sanguinalis; assay: greenhouse pre-emergence treatment, DIGSA; conditions: Digitaria sanguinalis, sc, 480 h, DIGSA, 20 DAT
# Summary of the method: as §1
# [16] = system: Avena fatua; assay: greenhouse pre-emergence treatment, AVEFA; conditions: Avena fatua, 480 h, AVEFA, 20 DAT, solo terbuthylazin (SC 500 g/l) 500 gai/ha
# Summary of the method: as §1
# [17] = system: Stellaria media; assay: greenhouse pre-emergence treatment, STEME; conditions: Stellaria media, 480 h, 20 DAT, solo terbuthylazin (SC 500 g/l) 62.5 gai/ha
# Text: as §2, §3, §4, §5, §6, §7, §8
# [18] = system: Echinocloa crus-galli; assay: greenhouse pre-emergence treatment, ECHCG; conditions: 20 DAT; for % activity: terbuthylazin solo (SC 500 g/l)
# Text: as §2, §3, §4, §5, §6, §7, §8
# [19] = prosulfocarb solo 250 gai/ha, read-out: % activity
# [20] = sc, solo terbuthylazin (SC 500 g/l) 250 gai/ha
# [21] = sc, solo terbuthylazin (SC 500 g/l) 500 gai/ha
# [22] = solo terbuthylazin (SC 500 g/l) 62.5 gai/ha
# [23] = solo terbuthylazin (SC 500 g/l) 125 gai/ha
# [24] = solo terbuthylazin (SC 500 g/l) 250 gai/ha
compound,measurement,setting,value
O=C(Nc1ccc(F)cc1F)c1cccnc1Oc1cccc(C(F)(F)F)c1 [diflufenican],% activity,"[1]; Table X9, 21 DAT, solo diflufenican (SC 500 g/l) 60 gai/ha",70%
same,% activity,[2]; solo diflufenican (SC 500 g/l) 15 gai/ha,0%
same,% activity,[2]; solo diflufenican (SC 500 g/l) 30 gai/ha,0%
same,% activity,[2]; solo diflufenican (SC 500 g/l) 120 gai/ha,20%
CCCN(CCC)C(=O)SCc1ccccc1 [prosulfocarb],pest or weed control at 500 g/ha,[3],30%
same,inhibition at 250 g/ha,"[1]; Setaria viridis, 480 h, prosulfocarb solo 250 gai/ha, 20 DAT",40%
same,inhibition at 1000 g/ha,"[1]; Setaria viridis, 480 h, prosulfocarb solo 1000 gai/ha, 20 DAT",85%
same,% activity,"[1]; solo, EC 800 g/l, 125 gai/ha, 20 DAT",10%
same,inhibition at 250 g/ha,[4]; prosulfocarb solo 250 gai/ha,0%
same,inhibition at 1000 g/ha,[4]; prosulfocarb solo 1000 gai/ha,65%
same,inhibition at 250 g/ha,[5]; prosulfocarb solo 250 gai/ha,30%
same,inhibition at 250 g/ha,[6]; [19],0%
same,inhibition at 1000 g/ha,[6]; prosulfocarb solo 1000 gai/ha,80%
same,inhibition at 125 g/ha,[7]; prosulfocarb solo 125 gai/ha,0%
same,inhibition at 1000 g/ha,"[8]; Papaver rhoeas, 480 h, prosulfocarb solo 1000 gai/ha",70%
same,% activity,"[8]; solo, EC 800 g/l, 1000 gai/ha",70%
same,inhibition at 250 g/ha,[9]; [19],0%
same,inhibition at 500 g/ha,[9]; prosulfocarb solo 500 gai/ha,40%
same,inhibition at 1000 g/ha,[9]; prosulfocarb solo 1000 gai/ha,50%
same,"% herbicidal activity (weed control, 0-100 scale) at 250 g/ha",[10]; prosulfocarb solo 250 gai/ha,0%
same,"% herbicidal activity (weed control, 0-100 scale) at 500 g/ha",[10]; prosulfocarb solo 500 gai/ha,20%
"CCNc1nc(Cl)nc(NC(C)(C)C)n1 [terbuthylazin, terbuthylazine]",inhibition at 500000 µg/mL (stock),"[1]; Setaria viridis, 480 h, 20 DAT, solo terbuthylazin (SC 500 g/l) 250 gai/ha",0%
same,% activity,"[1]; terbuthylazin solo (SC 500 g/l), 62.5 gai/ha, 20 DAT",0%
same,% activity,"[1]; terbuthylazin solo (SC 500 g/l), 125 gai/ha, 20 DAT",0%
same,% activity,"[1]; terbuthylazin solo (SC 500 g/l), 250 gai/ha, 20 DAT",0%
same,inhibition at 500000 µg/mL (stock),"[5]; sc, solo terbuthylazin (SC 500 g/l) 125 gai/ha",0%
same,inhibition at 500000 µg/mL (stock),[5]; [20],10%
same,inhibition at 500000 µg/mL,[5]; [21],35%
same,inhibition at 500000 µg/mL (stock),[11],40%
same,"pest or weed control at 500000 µg/mL, 500 g/ha","[6]; terbuthylazin solo (SC 500 g/l), 500 gai/ha",65%
same,inhibition at 500000 µg/mL (stock),[6]; [20],0%
same,inhibition at 500000 µg/mL,[6]; [21],65%
same,inhibition at 500000 µg/mL (stock),[7]; [22],0%
same,inhibition at 500000 µg/mL (stock),[7]; [23],30%
same,inhibition at 500000 µg/mL (stock),[7]; [24],70%
same,inhibition at 500000 µg/mL (stock),[12]; [22],0%
same,inhibition at 500000 µg/mL (stock),[12]; [23],50%
same,"pest or weed control at 500000 µg/mL, 500 g/ha",[13],65%
same,% activity,[14],35%
same,inhibition at 500000 µg/mL (stock),[15]; [23],0%
same,inhibition at 500000 µg/mL (stock),[15]; [24],0%
same,inhibition at 500000 µg/mL,[15]; solo terbuthylazin (SC 500 g/l) 500 gai/ha,20%
same,inhibition at 500000 µg/mL,[16],0%
same,inhibition at 500000 µg/mL (stock),[9]; [24],0%
same,inhibition at 500000 µg/mL (stock),[17],70%
same,inhibition at 500000 µg/mL,"[18]; Echinochloa crus-galli, 480 h, solo terbuthylazin (SC 500 g/l) 500 gai/ha",0%
same,% activity,[18]; 62.5 gai/ha,0%
same,% activity,[18]; 125 gai/ha,0%
